Reference: paper PMC5218480 (PLoS ONE, 2017)

System: MV-4-11 cells
Experiment: Gene expression microarray analysis (Affymetrix PrimeView) and GSEA
Type: cell-based, human
Set-up: RFU PODN (11730768_x_at) / Fold change /veh PODN (11730768_x_at) / RFU LINC00158 (11744669_a_at) / Fold change /veh LINC00158 (11744669_a_at) / RFU DUSP10 (11751237_a_at) / Fold change /veh DUSP10 (11751237_a_at) / RFU ID3 (11757404_x_at) / Fold change /veh ID3 (11757404_x_at) / RFU PLEKHG5 (11737974_s_at) / Fold change /veh PLEKHG5 (11737974_s_at) / RFU LRRC4B (11730491_at) / Fold change /veh LRRC4B (11730491_at) / RFU GIMAP4 (11747438_a_at) / Fold change /veh GIMAP4 (11747438_a_at) / RFU KRT8 (11758183_x_at) / Fold change /veh KRT8 (11758183_x_at) / RFU CNN1 (11734310_a_at) / Fold change /veh CNN1 (11734310_a_at) / RFU VPS37D (11726825_at) / Fold change /veh VPS37D (11726825_at) / RFU C10orf10 (11716522_x_at) / Fold change /veh C10orf10 (11716522_x_at) / RFU KIR2DL2 /// KIR2DL4 /// KIR2DL5A /// KIR2DL5B /// KIR2DS1 /// KIR2DS2 /// KIR2DS3 /// KIR2DS4 /// KIR3DL3 /// KIR3DL3 /// KIR3DS1 (11738374_at) / Fold change /veh KIR2DL2 /// KIR2DL4 /// KIR2DL5A /// KIR2DL5B /// KIR2DS1 /// KIR2DS2 /// KIR2DS3 /// KIR2DS4 /// KIR3DL3 /// KIR3DL3 /// KIR3DS1 (11738374_at) / RFU C1QL1 (11718748_at) / Fold change /veh C1QL1 (11718748_at) / RFU TMPRSS4 (11747572_a_at) / Fold change /veh TMPRSS4 (11747572_a_at) / RFU HAMP (11756126_x_at) / Fold change /veh HAMP (11756126_x_at) / RFU RNFT2 (11725882_a_at) / Fold change /veh RNFT2 (11725882_a_at) / RFU NR4A2 (11747474_a_at) / Fold change /veh NR4A2 (11747474_a_at) / RFU ABCC12 (11746883_a_at) / Fold change /veh ABCC12 (11746883_a_at) / RFU TMEM136 (11760407_x_at) / Fold change /veh TMEM136 (11760407_x_at) / RFU CLDN22 /// WWC2 (11732394_at) / Fold change /veh CLDN22 /// WWC2 (11732394_at) / RFU HLA-DPB1 (11760878_x_at) / Fold change /veh HLA-DPB1 (11760878_x_at) / RFU SPINT1 (11716480_a_at) / Fold change /veh SPINT1 (11716480_a_at) / RFU GAP43 (11754022_s_at) / Fold change /veh GAP43 (11754022_s_at) / RFU A4GNT (11735810_at) / Fold change /veh A4GNT (11735810_at) / RFU PRB3 (11715151_x_at) / Fold change /veh PRB3 (11715151_x_at) / RFU TUBB4B (11761932_at) / Fold change /veh TUBB4B (11761932_at) / RFU CAPN14 (11732068_a_at) / Fold change /veh CAPN14 (11732068_a_at) / RFU TMCC2 (11721928_a_at) / Fold change /veh TMCC2 (11721928_a_at) / RFU IRGQ (11745062_a_at) / Fold change /veh IRGQ (11745062_a_at) / RFU FAM174B (11720279_a_at) / Fold change /veh FAM174B (11720279_a_at) / RFU TMPRSS4 (11748680_a_at) / Fold change /veh TMPRSS4 (11748680_a_at) / RFU FAM212B (11763350_a_at) / Fold change /veh FAM212B (11763350_a_at) / RFU PLEKHG5 (11743358_a_at) / Fold change /veh PLEKHG5 (11743358_a_at) / RFU ZSCAN30 (11745921_a_at) / Fold change /veh ZSCAN30 (11745921_a_at) / RFU CMKLR1 (11741424_a_at) / Fold change /veh CMKLR1 (11741424_a_at) / RFU LOC101060620 /// MAPK8IP1 (11723275_at) / Fold change /veh LOC101060620 /// MAPK8IP1 (11723275_at) / RFU SPTSSB (11747773_x_at) / Fold change /veh SPTSSB (11747773_x_at) / RFU PRSS12 (11739890_at) / Fold change /veh PRSS12 (11739890_at) / RFU BIN1 (11741810_x_at) / Fold change /veh BIN1 (11741810_x_at) / RFU WNT11 (11732464_a_at) / Fold change /veh WNT11 (11732464_a_at) / RFU C10orf10 (11716521_a_at) / Fold change /veh C10orf10 (11716521_a_at) / RFU C5orf56 (11738089_at) / Fold change /veh C5orf56 (11738089_at) / RFU CYB561 (11721691_x_at) / Fold change /veh CYB561 (11721691_x_at) / RFU ANKRD19P (11752326_a_at) / Fold change /veh ANKRD19P (11752326_a_at) / RFU OR2T12 /// OR2T33 /// OR2T8 (11738714_s_at) / Fold change /veh OR2T12 /// OR2T33 /// OR2T8 (11738714_s_at) / RFU VCAN (11748164_a_at) / Fold change /veh VCAN (11748164_a_at) / RFU JSRP1 (11732532_at) / Fold change /veh JSRP1 (11732532_at) / RFU KRTAP10-11 (11738290_x_at) / Fold change /veh KRTAP10-11 (11738290_x_at) / RFU MYO3A (11730013_a_at) / Fold change /veh MYO3A (11730013_a_at) / RFU EBF3 (11725865_a_at) / Fold change /veh EBF3 (11725865_a_at) / RFU CAMK2N1 (11719241_x_at) / Fold change /veh CAMK2N1 (11719241_x_at) / RFU C5orf56 (11738088_a_at) / Fold change /veh C5orf56 (11738088_a_at) / RFU OLFML3 (11715873_a_at) / Fold change /veh OLFML3 (11715873_a_at) / RFU LOC100653217 /// NTM (11731650_a_at) / Fold change /veh LOC100653217 /// NTM (11731650_a_at) / RFU MAPK11 (11762145_a_at) / Fold change /veh MAPK11 (11762145_a_at) / RFU FIZ1 (11724087_x_at) / Fold change /veh FIZ1 (11724087_x_at) / RFU OASL (11726364_x_at) / Fold change /veh OASL (11726364_x_at) / RFU SOX15 (11748057_x_at) / Fold change /veh SOX15 (11748057_x_at) / RFU CD79A (11719716_a_at) / Fold change /veh CD79A (11719716_a_at) / RFU HIST1H1D (11736915_at) / Fold change /veh HIST1H1D (11736915_at) / RFU CASKIN2 (11723855_a_at) / Fold change /veh CASKIN2 (11723855_a_at) / RFU LOC730098 (11760151_x_at) / Fold change /veh LOC730098 (11760151_x_at) / RFU OR4N2 (11742367_at) / Fold change /veh OR4N2 (11742367_at) / RFU PRRT2 (11749266_a_at) / Fold change /veh PRRT2 (11749266_a_at) / RFU SNX32 (11753110_a_at) / Fold change /veh SNX32 (11753110_a_at) / RFU CDHR5 (11726645_a_at) / Fold change /veh CDHR5 (11726645_a_at) / RFU RCAN1 (11760418_a_at) / Fold change /veh RCAN1 (11760418_a_at) / RFU FAM167A (11723789_a_at) / Fold change /veh FAM167A (11723789_a_at) / RFU FAM26E (11764081_at) / Fold change /veh FAM26E (11764081_at) / RFU ISYNA1 (11749810_s_at) / Fold change /veh ISYNA1 (11749810_s_at) / RFU ACY1 (11761880_at) / Fold change /veh ACY1 (11761880_at) / RFU 11764098_at / Fold change /veh 11764098_at / RFU SAMD14 (11745864_x_at) / Fold change /veh SAMD14 (11745864_x_at) / RFU NPB (11741838_a_at) / Fold change /veh NPB (11741838_a_at) / RFU TMPRSS6 (11731388_a_at) / Fold change /veh TMPRSS6 (11731388_a_at) / RFU KRTAP10-2 (11738614_at) / Fold change /veh KRTAP10-2 (11738614_at) / RFU ARHGAP8 /// PRR5-ARHGAP8 (11727945_x_at) / Fold change /veh ARHGAP8 /// PRR5-ARHGAP8 (11727945_x_at) / RFU KRTAP5-7 /// NADSYN1 (11734609_at) / Fold change /veh KRTAP5-7 /// NADSYN1 (11734609_at) / RFU RASL12 (11751679_a_at) / Fold change /veh RASL12 (11751679_a_at) / RFU CDKN2B (11736163_a_at) / Fold change /veh CDKN2B (11736163_a_at) / RFU PRF1 (11729649_at) / Fold change /veh PRF1 (11729649_at) / RFU, ZNF638 /// ZNF638-IT1 / Fold change vs veh, ZNF638 /// ZNF638-IT1 / RFU, PANK3 / Fold change vs veh, PANK3 / RFU, SH3YL1 / Fold change vs veh, SH3YL1 / RFU, ZEB2 / Fold change vs veh, ZEB2 / RFU, NRIP1 / Fold change vs veh, NRIP1 / RFU, PTTG1IP / Fold change vs veh, PTTG1IP / RFU, CAPN2 / Fold change vs veh, CAPN2 / RFU, MED14 / Fold change vs veh, MED14 / RFU, SNORA58 / Fold change vs veh, SNORA58 / RFU, C1orf63 / Fold change vs veh, C1orf63 / RFU, LRRFIP1 / Fold change vs veh, LRRFIP1 / RFU, NDUFAF7 / Fold change vs veh, NDUFAF7 / RFU, SLC12A2 / Fold change vs veh, SLC12A2 / RFU, IBTK / Fold change vs veh, IBTK / RFU, ESF1 / Fold change vs veh, ESF1 / Fold change vs veh, TMEM50B / RFU, TAOK1 / Fold change vs veh, TAOK1 / RFU, ACBD3 / Fold change vs veh, ACBD3 / RFU, TMA16 / Fold change vs veh, TMA16 / RFU, RWDD3 / Fold change vs veh, RWDD3 / RFU, BCAT1 / Fold change vs veh, BCAT1 / RFU, EDEM3 / Fold change vs veh, EDEM3 / RFU, TMEM33 / Fold change vs veh, TMEM33 / RFU, WDR75 / Fold change vs veh, WDR75 / RFU, AHCTF1 / Fold change vs veh, AHCTF1 / RFU, TFRC / Fold change vs veh, TFRC / RFU, ZDHHC17 / Fold change vs veh, ZDHHC17 / RFU, NOM1 / Fold change vs veh, NOM1 / RFU, ARL8B / Fold change vs veh, ARL8B / RFU, ZBTB11 / Fold change vs veh, ZBTB11 / RFU, TAMM41 / Fold change vs veh, TAMM41 / RFU, KIAA1704 /// LOC100996395 / Fold change vs veh, KIAA1704 /// LOC100996395 / RFU, ING1 / Fold change vs veh, ING1 / RFU, TRMT61B / Fold change vs veh, TRMT61B / RFU, FUBP3 / Fold change vs veh, FUBP3 / RFU, TP53 / Fold change vs veh, TP53 / RFU, TNKS2 / Fold change vs veh, TNKS2 / RFU, ZFP14 / Fold change vs veh, ZFP14 / RFU, ACTR2 / Fold change vs veh, ACTR2 / RFU, PPP3R1 / Fold change vs veh, PPP3R1 / RFU, PIK3R1 / Fold change vs veh, PIK3R1 / RFU, HNRNPA1 / Fold change vs veh, HNRNPA1 / RFU, RNF170 / Fold change vs veh, RNF170 / RFU, ZNF28 / Fold change vs veh, ZNF28 / RFU, RNGTT / Fold change vs veh, RNGTT / RFU, OGT / Fold change vs veh, OGT / RFU, BRD1 / Fold change vs veh, BRD1 / RFU, MARS / Fold change vs veh, MARS / RFU, ZNF655 / Fold change vs veh, ZNF655 / RFU, FAHD1 / Fold change vs veh, FAHD1 / RFU, BDP1 / Fold change vs veh, BDP1 / RFU, LRRCC1 / Fold change vs veh, LRRCC1 / RFU, ARID1A / Fold change vs veh, ARID1A / RFU, ZNF146 / Fold change vs veh, ZNF146 / RFU, ZNF330 / Fold change vs veh, ZNF330 / RFU, GPN3 / Fold change vs veh, GPN3 / RFU, C9orf123 / Fold change vs veh, C9orf123 / RFU, N4BP2L2 / Fold change vs veh, N4BP2L2 / RFU, ARFIP1 / Fold change vs veh, ARFIP1 / RFU, FAM179B / Fold change vs veh, FAM179B / RFU, BCL10 / Fold change vs veh, BCL10 / RFU, UHRF1BP1L / Fold change vs veh, UHRF1BP1L / RFU, BET1 / Fold change vs veh, BET1 / RFU, CNOT2 / Fold change vs veh, CNOT2 / RFU, ZNF268 / Fold change vs veh, ZNF268 / Fold change vs veh, ZNF507 / RFU, DGCR2 / Fold change vs veh, DGCR2 / RFU, WDSUB1 / Fold change vs veh, WDSUB1 / Fold change vs veh, HSP90B1 /// MIR3652 / RFU, ADSS / Fold change vs veh, ADSS / RFU, GK / Fold change vs veh, GK / RFU, ZNF148 / Fold change vs veh, ZNF148 / RFU, TAF9 / Fold change vs veh, TAF9 / RFU, SLC1A5 / Fold change vs veh, SLC1A5 / RFU, SLMO2 / Fold change vs veh, SLMO2 / RFU, ABCC4 / Fold change vs veh, ABCC4 / RFU, LOC101060439 /// RAP1B / Fold change vs veh, LOC101060439 /// RAP1B / RFU, RFX7 / Fold change vs veh, RFX7 / RFU, GTPBP10 / Fold change vs veh, GTPBP10 / RFU, CNEP1R1 / Fold change vs veh, CNEP1R1 / RFU, BIVM-ERCC5 /// ERCC5 / Fold change vs veh, BIVM-ERCC5 /// ERCC5 / RFU, ILF3 / Fold change vs veh, ILF3 / RFU 11762660_at / Fold change /veh 11762660_at / RFU VCAN (11757783_s_at) / Fold change /veh VCAN (11757783_s_at) / RFU DDX43 (11728927_at) / Fold change /veh DDX43 (11728927_at) / RFU KRT8 (11758188_x_at) / Fold change /veh KRT8 (11758188_x_at) / RFU NKD1 (11759106_at) / Fold change /veh NKD1 (11759106_at) / RFU SRD5A1 (11742802_a_at) / Fold change /veh SRD5A1 (11742802_a_at) / RFU TPSAB1 /// TPSB2 (11721975_s_at) / Fold change /veh TPSAB1 /// TPSB2 (11721975_s_at) / RFU GSTM3 (11746129_a_at) / Fold change /veh GSTM3 (11746129_a_at) / RFU IL23R (11737362_x_at) / Fold change /veh IL23R (11737362_x_at) / RFU TMEM51 (11727254_a_at) / Fold change /veh TMEM51 (11727254_a_at) / RFU PIWIL2 (11732686_x_at) / Fold change /veh PIWIL2 (11732686_x_at) / RFU ORM1 (11744905_x_at) / Fold change /veh ORM1 (11744905_x_at) / RFU CCDC152 (11743942_at) / Fold change /veh CCDC152 (11743942_at) / RFU ECM1 (11717891_a_at) / Fold change /veh ECM1 (11717891_a_at) / RFU IL23R (11748794_a_at) / Fold change /veh IL23R (11748794_a_at) / RFU TNFAIP8L3 (11732012_x_at) / Fold change /veh TNFAIP8L3 (11732012_x_at) / RFU MBOAT4 (11741988_at) / Fold change /veh MBOAT4 (11741988_at) / RFU 11764193_at / Fold change /veh 11764193_at / RFU TMEM53 (11763286_at) / Fold change /veh TMEM53 (11763286_at) / RFU MAGEB2 (11727129_at) / Fold change /veh MAGEB2 (11727129_at) / RFU TMEM200A (11744735_a_at) / Fold change /veh TMEM200A (11744735_a_at) / RFU CCDC152 (11751479_a_at) / Fold change /veh CCDC152 (11751479_a_at) / RFU FAM211A (11726209_a_at) / Fold change /veh FAM211A (11726209_a_at) / RFU RGS16 (11746705_a_at) / Fold change /veh RGS16 (11746705_a_at) / RFU VCAN (11755009_s_at) / Fold change /veh VCAN (11755009_s_at) / RFU RHOB (11743442_s_at) / Fold change /veh RHOB (11743442_s_at) / RFU RGS16 (11720943_a_at) / Fold change /veh RGS16 (11720943_a_at) / RFU RGS16 (11720944_at) / Fold change /veh RGS16 (11720944_at) / RFU, VPS4B / Fold change vs veh, VPS4B / RFU, CREB1 / Fold change vs veh, CREB1 / RFU, DNAJC13 / Fold change vs veh, DNAJC13 / RFU, GNAQ / Fold change vs veh, GNAQ / RFU, CDK5R1 / Fold change vs veh, CDK5R1 / RFU, ZRANB3 / Fold change vs veh, ZRANB3 / RFU, CUL4A / Fold change vs veh, CUL4A / RFU, CCNY / Fold change vs veh, CCNY / RFU, UFL1 / Fold change vs veh, UFL1 / RFU, COG3 / Fold change vs veh, COG3 / RFU, DIAPH2 / Fold change vs veh, DIAPH2 / RFU, SKA2 / Fold change vs veh, SKA2 / RFU, AFF3 / Fold change vs veh, AFF3 / RFU, LMF1 / Fold change vs veh, LMF1 / RFU, IPO11 / Fold change vs veh, IPO11 / RFU, DFFB / Fold change vs veh, DFFB / RFU, FOXP1 / Fold change vs veh, FOXP1 / RFU, CARD8 / Fold change vs veh, CARD8 / RFU, STRN3 / Fold change vs veh, STRN3 / RFU, ADK / Fold change vs veh, ADK / RFU, RASSF2 / Fold change vs veh, RASSF2 / RFU, WIPF1 / Fold change vs veh, WIPF1 / RFU, LARP1B / Fold change vs veh, LARP1B / RFU, RASA1 / Fold change vs veh, RASA1 / RFU, RB1 / Fold change vs veh, RB1 / RFU, PPFIA1 / Fold change vs veh, PPFIA1 / RFU, MAT2A / Fold change vs veh, MAT2A / RFU, CCT5 / Fold change vs veh, CCT5 / RFU, WDR92 / Fold change vs veh, WDR92 / RFU, CUX1 / Fold change vs veh, CUX1 / RFU, TTC7A / Fold change vs veh, TTC7A / RFU, TMEM135 / Fold change vs veh, TMEM135 / RFU, DEPTOR / Fold change vs veh, DEPTOR / RFU, CPM / Fold change vs veh, CPM / RFU, DNAJB6 / Fold change vs veh, DNAJB6 / RFU, CACNA2D3 / Fold change vs veh, CACNA2D3 / RFU, DTX4 / Fold change vs veh, DTX4 / RFU, TFCP2 / Fold change vs veh, TFCP2 / RFU, GMCL1 /// GMCL1P1 / Fold change vs veh, GMCL1 /// GMCL1P1 / RFU, AEBP2 / Fold change vs veh, AEBP2 / RFU, SNHG1 /// SNORD22 /// SNORD25 /// SNORD26 /// SNORD27 /// SNORD28 /// SNORD29 /// SNORD31 / Fold change vs veh, SNHG1 /// SNORD22 /// SNORD25 /// SNORD26 /// SNORD27 /// SNORD28 /// SNORD29 /// SNORD31 / Fold change (Aza/veh), C12orf56 (ProbeSet 11735607_a_at) / Fold change (ACY-1035/veh), C12orf56 (ProbeSet 11735607_a_at) / Fold change (Aza/veh), FGFR1OP (ProbeSet 11751329_s_at) / Fold change (ACY-1035/veh), FGFR1OP (ProbeSet 11751329_s_at) / Fold change (Aza/veh), VPS36 (ProbeSet 11739960_a_at) / Fold change (ACY-1035/veh), VPS36 (ProbeSet 11739960_a_at) / RFU SYPL1 (11715823_x_at) / Fold change /veh SYPL1 (11715823_x_at) / RFU IGFBP7 (11715501_s_at) / Fold change /veh IGFBP7 (11715501_s_at) / RFU REEP3 (11722064_at) / Fold change /veh REEP3 (11722064_at) / RFU IGLL1 (11728026_x_at) / Fold change /veh IGLL1 (11728026_x_at): dose or concentration left out as unconfirmed
Conditions: ProbeSet 11716865_a_at; LIST B

Nc1ncn([C@@H]2O[C@H](CO)[C@@H](O)[C@H]2O)c(=O)n1 [azacitidine]
RFU, SLC1A5: 258.33 RFU
